According to US12270064B2, “Peptide for complexing zinc ion, complex thereof and use therefor” (Guangzhou University, priority 2020, dated 2025):
No end group written: not given here.

Assay: Complexing rate / complexing ability of zinc ion of soybean peptide fractions
Assay type: binding
Conditions: HPLC separation of F2, FIG. 2

With “KYKRQRW [F21, single peptide component purified by HPLC from F2; also made by solid phase peptide synthesis]” the “complexing ability with zinc ion, ranking among HPLC fractions” value was “strongest complexing ability with zinc ion”.
